One may read the IC50 as the concentration that gives 50% inhibition.

The test concerns the target T1, S-adenosylmethionine decarboxylase proenzyme (Homo sapiens, UniProt P17707).
T1 sequence (P17707 whole entry): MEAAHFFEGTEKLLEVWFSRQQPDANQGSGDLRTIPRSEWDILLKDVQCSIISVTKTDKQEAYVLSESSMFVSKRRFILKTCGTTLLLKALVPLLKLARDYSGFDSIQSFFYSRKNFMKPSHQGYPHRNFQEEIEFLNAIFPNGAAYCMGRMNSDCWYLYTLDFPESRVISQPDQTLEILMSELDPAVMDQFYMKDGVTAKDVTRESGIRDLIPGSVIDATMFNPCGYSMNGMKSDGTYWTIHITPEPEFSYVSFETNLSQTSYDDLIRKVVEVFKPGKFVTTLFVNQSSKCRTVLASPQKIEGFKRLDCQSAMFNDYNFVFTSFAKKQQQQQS
Put plainly: AdoMetDC Inhibition Assay. The procedure: The C-terminal his-tagged AdoMetDC was assayed by measuring the release of 14CO2 from S-adenosyl-L-[carboxy-14C]methionine (Amersham Pharmacia Biotech). For determination of the abilities of compounds to inhibit AdoMetDC, the enzyme activity was determined in the presence of no inhibitor and at least five concentrations of each potential inhibitor. The IC50 values were determined from curve fitting to plots of the inhibitor concentration versus the % inhibition of AdoMetDC.

The molecule `C[S+](C)C[C@H]1O[C@@H](n2cnc3c(N)ncnc32)[C@H](O)[C@@H]1O` [{[(2S,3S,4R,5R)-5-(6-amino-9H-purin-9-yl)-3,4-dihydroxyoxolan-2-yl]methyl}dimethylsulfanium chloride] returned a 50% inhibitory concentration (IC50) of 15 µM.

These data come from BindingDB's records for doi:10.1021/jm801126a (Cornell University, 2009).
